Source: BindingDB's records for doi:10.1021/jm00098a005 (Pfizer, 1992)

Key:
[1] = Compound was evaluated for binding affinity towards 5-hydroxytryptamine 1D receptor in bovine caudate using [3H]- serotonin as radioligand
[2] = Compound was evaluated for binding affinity towards 5-hydroxytryptamine 1C receptor in pig choroid plexus using [3H]mesulergine as radioligand

## CN(C)CCc1c[nH]c2ccc3c(c12)CCCO3
[1]
  IC50: 0.22 µM
[2]
  IC50: 0.15 µM

## Cn1cc(CCN)c2c3c(ccc21)OCCC3
[1]
  IC50: 4.2 µM
[2]
  IC50: 0.1 µM

## CN(C)CCc1cn(C)c2ccc3c(c12)CCCO3
[1]
  IC50: 9.3 µM
[2]
  IC50: 0.1 µM

## NCCc1c[nH]c2ccc3c(c12)CCCO3
[1]
  IC50: 0.11 µM
[2]
  IC50: 0.041 µM

## CN(C)CCc1c[nH]c2cc3c(cc12)OCCC3
[2]
  IC50: 2.5 µM
